This is an account of results in PubChem BioAssay (NCI).

Among the test systems are EKVX NSCLC; HL-60(TB) leukemia; HS 578T breast; NCI-H522 lung; SK-MEL-28 melanoma; SW-620 colon; T-47D breast; CCRF-CEM leukemia.
Common to all, as to test: NCI-60 cell line screen, 48 h

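Assay format: 96-well plates, 48-hour exposure. Here, GI50 denotes the concentration required for 50% inhibition of growth. At the TGI there is no net growth.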

Consider `CCN(CC)Cc1cc(Nc2ccnc3ccc(OC)cc23)ccc1O`, for which the GI50 with EKVX NSCLC was 5.16 µM; in the assay with HL-60(TB) leukemia, 1.94 µM; with HS 578T breast, 9.35 µM; in the assay on NCI-H522 lung, 2.21 µM; in the assay on SK-MEL-28 melanoma it was 3.4 µM; in the assay with SW-620 colon it was 3.6 µM. The GI50 in the assay on T-47D breast is 5.69 µM. The TGI in the assay with EKVX NSCLC was 38.8 µM; in the assay with HL-60(TB) leukemia it was 8.83 µM; with HS 578T breast, 30.6 µM; in the assay on NCI-H522 lung, 5.61 µM; with SK-MEL-28 melanoma, 10.4 µM; in the assay on SW-620 colon, 19.7 µM. The TGI in the assay on T-47D breast was 44.7 µM.
With `CCN1C[C@@H](C)n2c(c(O)c3c(=O)n(Cc4ccc(F)c(Cl)c4)nc(C(=O)NC)c32)C1=O`, the GI50 with CCRF-CEM leukemia is 3.57 µM; in the assay with HS 578T breast, 2.48 µM; in the assay with NCI-H522 lung, 2.95 µM; with SK-MEL-28 melanoma, 2.69 µM; with SW-620 colon, 3.11 µM; in the assay on T-47D breast, 3.57 µM. Moreover, the TGI in the assay on CCRF-CEM leukemia was above 100 µM; in the assay on HS 578T breast, 7.42 µM; in the assay on NCI-H522 lung, 9.47 µM; in the assay on SK-MEL-28 melanoma, 7.17 µM; in the assay with SW-620 colon, above 100 µM; with T-47D breast it was above 100 µM.
For `COc1cc(C2C=C(C)N=C3SC=C(C)N32)cc(OC)c1OC` (stereo unspecified), the GI50 was 0.312 µM in the assay on CCRF-CEM leukemia; 0.76 µM in the assay on HL-60(TB) leukemia; 2.95 µM in the assay with HS 578T breast; 0.53 µM with NCI-H522 lung; 0.507 µM with SK-MEL-28 melanoma; 0.516 µM with SW-620 colon. The GI50 with T-47D breast was 1.91 µM. Moreover, the TGI is above 100 µM with CCRF-CEM leukemia; 7.09 µM in the assay on HL-60(TB) leukemia; 74.2 µM with HS 578T breast; 1.81 µM in the assay on NCI-H522 lung; 2.01 µM with SK-MEL-28 melanoma; 9.43 µM in the assay on SW-620 colon. In addition, the TGI in the assay with T-47D breast is 7.27 µM.
On to `O=C1NC(=NCCc2ccccc2F)S/C1=C\c1ccc2ncccc2c1`, for which the GI50 in the assay with CCRF-CEM leukemia is 5.05 µM; with HL-60(TB) leukemia, 9.14 µM; in the assay with HS 578T breast it was 7.05 µM; in the assay on NCI-H522 lung, 4.74 µM; in the assay with SK-MEL-28 melanoma, 11.7 µM; in the assay on SW-620 colon, 2.73 µM. Besides, in the assay on T-47D breast, the GI50 was 9.55 µM. Moreover, the TGI in the assay with CCRF-CEM leukemia was above 20.1 µM; in the assay on HL-60(TB) leukemia, 22.1 µM; with HS 578T breast, above 23.4 µM; in the assay with NCI-H522 lung, 16.9 µM; with SK-MEL-28 melanoma, above 25 µM; in the assay on SW-620 colon, above 25 µM. This molecule also showed a TGI in the assay with T-47D breast above 25 µM.
For `COC(=O)COc1ccccc1/C=C1/N=C(c2ccccc2)N(c2c(C)n(C)n(-c3ccccc3)c2=O)C1=O`, the GI50 is above 100 µM in the assay on EKVX NSCLC; above 100 µM with HL-60(TB) leukemia; above 100 µM with HS 578T breast; 20 µM in the assay with NCI-H522 lung; above 100 µM in the assay on SK-MEL-28 melanoma; above 100 µM with SW-620 colon. In addition, in the assay with T-47D breast, the GI50 was 30.5 µM. In addition, the TGI was above 100 µM in the assay on EKVX NSCLC; above 100 µM in the assay with HL-60(TB) leukemia; above 100 µM with HS 578T breast; 48 µM with NCI-H522 lung; above 100 µM in the assay with SK-MEL-28 melanoma; above 100 µM in the assay with SW-620 colon. In the assay on T-47D breast, this molecule registered a TGI above 100 µM.
As to `Oc1ccc(/C=N/NC(=S)Nc2ccccc2)nc1`, the GI50 with CCRF-CEM leukemia is 0.938 µM; in the assay on HL-60(TB) leukemia, 1.55 µM; in the assay with HS 578T breast, 9.84 µM; in the assay with NCI-H522 lung it was 1.94 µM; in the assay with SK-MEL-28 melanoma, 3.14 µM; with SW-620 colon it was 2.07 µM. For the same molecule, the GI50 in the assay with T-47D breast is 1.54 µM. In addition, the TGI is above 100 µM with CCRF-CEM leukemia; 6.77 µM in the assay on HL-60(TB) leukemia; above 100 µM with HS 578T breast; 39.8 µM with NCI-H522 lung; above 100 µM in the assay with SK-MEL-28 melanoma; above 100 µM with SW-620 colon. This molecule came in with a TGI with T-47D breast above 100 µM.
For `N#Cc1ncc(-c2ccc(C(F)(F)F)cc2)c(NC2CCCCCC2)n1`, the GI50 is 9.97 µM in the assay with CCRF-CEM leukemia; 10.4 µM in the assay with HL-60(TB) leukemia; 22.4 µM with HS 578T breast; 6.02 µM in the assay with NCI-H522 lung; 71.5 µM in the assay on SK-MEL-28 melanoma; 8.64 µM in the assay with SW-620 colon. Further, in the assay on T-47D breast, the GI50 is 6 µM. For the same molecule, the TGI with CCRF-CEM leukemia, with HL-60(TB) leukemia, in the assay with HS 578T breast, in the assay on NCI-H522 lung, in the assay with SK-MEL-28 melanoma and in the assay on SW-620 colon was above 100 µM in each case. The same molecule returned a TGI with T-47D breast above 100 µM.
On to `c1ccc(C2=Nc3ccccc3N3CNN=C23)cc1`, for which the GI50 is above 100 µM in the assay on CCRF-CEM leukemia; 47.9 µM in the assay with EKVX NSCLC; 81.8 µM in the assay with HS 578T breast; above 100 µM in the assay with NCI-H522 lung; above 100 µM in the assay on SW-620 colon; 74.8 µM with T-47D breast. The TGI in the assay on CCRF-CEM leukemia, in the assay with EKVX NSCLC, in the assay on HS 578T breast, in the assay on NCI-H522 lung, with SW-620 colon and with T-47D breast was above 100 µM throughout.
For the molecule `CCNCCS(=O)(=O)NC[C@@]1(c2ccccc2)SC(NC(=O)C(C)(C)C)=NN1C(=O)C(C)(C)C`, the GI50 in the assay with CCRF-CEM leukemia was below 0.01 µM; in the assay on EKVX NSCLC, below 0.0314 µM; in the assay with HS 578T breast it was below 0.01 µM; with NCI-H522 lung, below 0.01 µM; with SK-MEL-28 melanoma, 11.3 µM; in the assay with SW-620 colon it was below 0.01 µM. In addition, the GI50 in the assay on T-47D breast is below 0.01 µM. For the same molecule, the TGI is above 100 µM with CCRF-CEM leukemia; above 100 µM in the assay on EKVX NSCLC; above 100 µM in the assay on HS 578T breast; below 0.01 µM in the assay on NCI-H522 lung; above 100 µM in the assay with SK-MEL-28 melanoma; above 100 µM in the assay on SW-620 colon. The TGI with T-47D breast is above 100 µM.
With `Oc1c(Cl)cc(Cl)c(Cl)c1Cc1c(O)c(Cl)cc(Cl)c1Cl`, the GI50 in the assay with EKVX NSCLC is 0.973 µM; with HL-60(TB) leukemia it was 0.678 µM; in the assay with HS 578T breast, 1.03 µM; in the assay on NCI-H522 lung, 0.521 µM; with SK-MEL-28 melanoma, 2.13 µM; in the assay with SW-620 colon, 3.06 µM. Also, in the assay with T-47D breast, the GI50 was 2.41 µM. The TGI in the assay with EKVX NSCLC was determined as 16.7 µM; with HL-60(TB) leukemia, 7.96 µM; with HS 578T breast it was 51.3 µM; with NCI-H522 lung, 9.66 µM; in the assay with SK-MEL-28 melanoma, 15.9 µM; in the assay on SW-620 colon, 14.4 µM. In the assay with T-47D breast, this molecule had a TGI of 15 µM.
